Among the data in US11976083B2, “Inhibitors of peptidylarginine deiminases” (Gilead Sciences, Inc., priority 2020, dated 2024) are IC50 values, retold here.

SMILES strings stand for the structures.

This assay addresses T1, human PAD4 (Homo sapiens, UniProt Q9UM07).
T1 construct: human PAD4 (NM_012387), A2-P663, was PCR amplified; His-SUMO (N, cleaved yes); made in house; host or cells: E. coli BL21(DE3)
The experiment in a line: In vitro PAD4 BAEE biochemical assay. The following applies: BAEE substrate 3 mM, 5 nM PAD4, 2 mM calcium chloride; geometric mean of multiple experiments. Put shortly: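 Ammonia produced by BAEE deimination (3 mM substrate, 2 h, 25 °C) was read as fluorescent isoindole after o-phthalaldehyde/DTT derivatization, ex 405 nm/em 535 nm. Human PAD4 at 5 nM final, 2 mM calcium, pH 7.6 MOPS; compound preincubated 30 min. IC50s, normalized to BB-Cl-Amidine and DMSO controls, were geometric-mean averaged.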

T1 sequence (Q9UM07 2-663): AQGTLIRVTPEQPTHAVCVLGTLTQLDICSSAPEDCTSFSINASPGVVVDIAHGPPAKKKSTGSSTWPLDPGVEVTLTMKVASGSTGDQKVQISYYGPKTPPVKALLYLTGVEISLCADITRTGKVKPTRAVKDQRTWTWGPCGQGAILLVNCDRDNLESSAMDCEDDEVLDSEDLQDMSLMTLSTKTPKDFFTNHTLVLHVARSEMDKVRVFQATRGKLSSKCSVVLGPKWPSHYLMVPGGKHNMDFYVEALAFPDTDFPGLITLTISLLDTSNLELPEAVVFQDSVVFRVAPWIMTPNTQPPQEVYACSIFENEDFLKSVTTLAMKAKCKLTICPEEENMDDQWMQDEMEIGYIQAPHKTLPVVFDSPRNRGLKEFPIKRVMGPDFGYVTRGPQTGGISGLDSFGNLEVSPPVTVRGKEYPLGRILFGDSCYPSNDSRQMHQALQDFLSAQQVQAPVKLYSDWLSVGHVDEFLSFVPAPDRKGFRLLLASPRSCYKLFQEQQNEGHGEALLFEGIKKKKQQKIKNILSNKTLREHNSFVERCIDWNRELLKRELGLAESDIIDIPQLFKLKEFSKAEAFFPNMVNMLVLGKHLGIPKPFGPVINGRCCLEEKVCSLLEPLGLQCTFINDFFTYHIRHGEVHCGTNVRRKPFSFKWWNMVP

Turning to `COc1cc(C(=O)N2C[C@H](N)C[C@H](O)[C@@H]2C)cc2nc(-c3cc4ccc5nc4n3CCCCCCC(C)(C)C(=O)N[C@@H]5C)n(C)c12` [Example 786, (11~{R})-17-[5-[(2~{S},3~ {S},5~{R})-5-amino-3-hydroxy-2-methyl-piperidine-1-carbonyl]-7-methoxy-1-methyl-benzimidazol-2-yl]-8,8,11-trimethyl-1,10,19-triazatricyclo[10.5.2.0^ {15,18}]nonadeca-12,14,16,18-tetraen-9-one], the IC50 came out at 237 nM.
Under `CO[C@@H]1CCN(C(=O)c2cc(F)c3c(c2)nc(-c2cc4ccc5nc4n2CCCCCc2cc(Cl)ncc2C(=O)N[C@@H]5C)n3C)C[C@@H]1N` [Example 744, (2~{R})-17-[5-[(3~{S},4~ {R})-3-amino-4-methoxy-piperidine-1-carbonyl]-7-fluoro-1-methyl-benzimidazol-2-yl]-8-chloro-2-methyl-3,7,16,22-tetrazatetracyclo [14.5.2.0^{5,10).0^{19,23}] tricosa-1(22),5(10),6,8,17,19(23), 20-heptaen-4-one] stands 96 nM.
Consider `C[C@H]1NC(=O)C2(CCCCCCn3c(-c4nc5cc(C(=O)N[C@H]6CNCC[C@@H]6F)c(F)cc5n4C4CC4)cc4ccc1nc43)COC2` [Example 603, 1-cyclopropyl-6-fluoro-~ {N}-[(3~{S},4~{S})-4-fluoro-3-piperidyl]-2-[(11~{R})-11-methyl-9-oxo-spiro[1,10,19-triazatricyclo [10.5.2.0^{15,18}]nonadeca-12,14,16,18-tetraene-8,3′-oxetane]-17-yl] benzimidazole-5-carboxamide], for which the IC50 stood at 44 nM.
As for `COc1cc(C(=O)N2CCC[C@@H](N)C2)cc2nc(-c3cc4ccc5nc4n3CCCCCc3nccnc3C(=O)N[C@@H]5C)n(C)c12` [Example 627, (2~{R})-17-[5-[(3~{R})-3-aminopiperidine-1-carbonyl]-7-methoxy-1-methyl-benzimidazol-2-yl]-2-methyl-3,6,9,16,22-pentazatetracyclo [14.5.2.0^{5,10}.0^{19,23}] tricosa-1(22),5(10), 6,8,17,19(23),20-heptaen-4-one], the IC50 came to 49 nM.
Under `CO[C@@H]1CCN(C(=O)c2cc(F)c3c(c2)nc(-c2cc4ccc5nc4n2CC(F)(F)CCC[C@@H]2C[C@H]2C(=O)N[C@@H]5C)n3[C@@H]2C[C@@H]2F)C[C@@H]1N` [Example 746, (2~{R},5~{R},7~{R})-14-[5-[(3~{S),4~{R})-3-amino-4-methoxy-piperidine-1-carbonyl]-7-fluoro-1-[(1~{R},2~{S})-2-fluorocyclopropyl]benzimidazol-2-yl]-11,11-difluoro-2-methyl-3,13,19-triazatetracyclo [11.5.2.0^{5,7}.0^{16,20}] icosa-1(19),14,16(20), 17-tetraen-4-one] stands 25 nM; under `C[C@H]1NC(=O)[C@@H]2C[C@@]2(F)CCCC(F)(F)Cn2c(-c3nc4cc(C(=O)N5C[C@H](N)[C@@H]6CC[C@H]5C6)cc(F)c4n3C3CC3)cc3ccc1nc32` [Example 449, (2~{R},5~{S},7~{S})-14-[5-[(1~{S},4~{R},5~{R})-4-amino-2-azabicyclo[3.2.1]octane-2-carbonyl]-1-cyclopropyl-7-fluoro-benzimidazol-2-yl]-7,11,11-trifluoro-2-methyl-3,13,19-triazatetracyclo[11.5.2.0^{5,7}.0^{16,20}] icosa-1(19),14,16(20),17-tetraen-4-one], 22 nM; under `COc1cc(C(=O)N2[C@H]3CC[C@@H]2[C@H](N)C3)cc2nc(-c3cc4ccc5nc4n3CCCCCC[C@@H](OC)C(=O)N[C@@H]5C)c(C)n12` (single isomer, unassigned) [Example 334, (8−{R},11−{R})-17-[7-[(1−{R},2˜{R},4˜{S})-2-amino-7-azabicyclo[2.2.1]heptane-7-carbonyl]-5-methoxy-3-methyl-imidazo[1,2-a]pyridin-2-yl]-8-methoxy-11-methyl-1,10,19-triazatricyclo[10.5.2^{15,18}]nonadeca-12(19),13,15(18),16-tetraen-9-one], 39 nM.
In the case of `COc1cc(C(=O)N[C@H]2CNCC[C@@H]2F)cc2nc(-c3cc4ccc5nc4n3CCCCC[C@]3(C)C[C@H]3C(=O)N[C@@H]5C)n(C)c12` [Example 618, 2-[(2~{R},5~{R},7~{R})-2,7-dimethyl-4-oxo-3,13,19-triazatetracyclo[11.5.2.0^ {5,7}.0^{16,20}]icosa-1(19),14,16(20), 17-tetraen-14-yl]- ~{N}-[(3~{S},4~{S})-4-fluoro-3-piperidyl]-7-methoxy-1-methyl-benzimidazole-5-carboxamide], the IC50 is 69 nM.
For the compound `COc1cc(C(=O)N2[C@H]3CC[C@@H]2[C@H](N)C3)cc2nc(-c3cc4ccc5nc4n3CCCCC[C@H]3C[C@@H]3C(=O)N[C@@H]5C)n(C)c12` (single isomer, unassigned) [Example 224, (2˜{R},5˜{S},7˜{S})-14-[5-[(1˜{R},2˜{R},4˜{S})-2-amino-7-azabicyclo[2.2.1]heptane-7-carbonyl]-7-methoxy-1-methyl-benzimidazol-2-yl]-2-methyl-3,13,19-triazatetracyclo[11.5.2.0^{5,7}.0^{16,20}]icosa-1(19),14,16(20),17-tetraen-4-one], the IC50 was determined as 57 nM.
Under `COc1cc(C(=O)N2CC[C@@H](OC)[C@@H](N)C2)cc2nc(-c3cc4ccc5nc4n3CCCCC[C@@H]3C[C@@]3(C(F)(F)F)C(=O)N[C@@H]5C)n(C)c12` [Example 634, (2~{R},5~{S},7~{R})-14-[5-[(3~{S},4~{R})-3-amino-4-methoxy-piperidine-1-carbonyl]-7-methoxy-1-methyl-benzimidazol-2-yl]-2-methyl-5-(trifluoromethyl)-3,13,19-triazatetracyclo[11.5.2.0^ {5,7}.0^{16,20}] icosa-1(19),14,16(20), 17-tetraen-4-one] stands 251 nM; under `COc1cc(C(=O)N2C[C@H](N)[C@@H]3CC[C@H]2C3)cc2nc(-c3cc4ccc5nc4n3CCCCCc3cc(C(F)(F)F)ncc3C(=O)N[C@@H]5C)n(C3CC3)c12` [Example 942, (2~{R})-17-[5-[(1~{S},4~{R},5~ {R})-4-amino-2-azabicyclo [3.2.1]octane-2-carbonyl]-1-cyclopropyl-7-methoxy-benzimidazol-2-yl]-2-methyl-8-(trifluoromethyl)-3,7,16,22-tetrazatetracyclo[14.5.2.0^ {5,10).0^{19,23}]tricosa-1(22), 5(10),6,8,17,19(23),20-heptaen-4-one], 72 nM.
Under `COc1cc(C(=O)N2CCC[C@@H](N)C2)cc2nc(-c3cc4ccc5nc4n3CCCCC[C@H](OC)C(C)(C)C(=O)N[C@@H]5C)n(C)c12` [Example 154, (7~{S},11~{R})-17-[5-[(3~{R})-3-aminopiperidine-1-carbonyl]-7-methoxy-1-methyl-benzimidazol-2-yl]-7-methoxy-8,8,11-trimethyl-1,10,19-triazatricyclo[10.5.2.0^{15,18}]nonadeca-12(19),13,15(18),16-tetraen-9-one] stands 57 nM.
On to `COc1cc(C(=O)N2[C@H]3CC[C@@H]2[C@H](N)C3)cc2nc(-c3cc4ccc5nc4n3C/C=C\CCCCC(=O)N[C@@H]5C)c(C)n12` [Example 123, (3~{2},11~{R})-17-[7-[(1~{R},2~{R},4~{S})-2-amino-7-azabicyclo[2.2.1]heptane-7-carbonyl]-5-methoxy-3-methyl-imidazo[1,2-a]pyridin-2-yl]-11-methyl-1,10,19-triazatricyclo[10.5.2.0^{15,18}]nonadeca-3,12(19),13,15(18),16-pentaen-9-one], for which the IC50 was 12 nM.
